These results are taken from ChEMBL document CHEMBL1152855, “Regioselective synthesis of dispiro[1H-indene-2,3'-pyrrolidine-2',3''-[3H]indole]-1,2''(1''H)-diones of potential anti-tumor properties” (2009).

A word on the inhibition in vivo: it is the percentage by which the read-out fell short of the control.

Assay type in all cases: functional
Assay [1] has as its system EKVX. As to the kind of experiment: Growth inhibition of human EKVX cells at 10 uM after 48 hrs by sulforhodamine B assay. The conditions noted are these: values are per cent of control. (Sulforhodamine B stains cellular protein and so reports cell mass.)
Assay [2] has as its system NCI-H522. Kind of assay: Growth inhibition of human NCI-H522 cells at 10 uM after 48 hrs by sulforhodamine B assay. Particulars: NCI-H522, 48 h, values are per cent of control.
For assay [3], the system named is HCC 2998. Kind of assay: Growth inhibition of human HCC2998 cells at 10 uM after 48 hrs by sulforhodamine B assay. The conditions noted are these: HCC 2998, 48 h, values are per cent of control.
For assay [4], the system named is SW-620. As to the kind of experiment: Growth inhibition of human SW620 cells at 10 uM after 48 hrs by sulforhodamine B assay. Particulars: SW-620, 48 h, values are per cent of control.
In assay [5] the test system is MCF7. As to the kind of experiment: Growth inhibition of human MCF7 cells at 10 uM after 48 hrs by sulforhodamine B assay. The conditions noted are these: MCF7, 48 h, values are per cent of control.
The subject of assay [6] is MDA-MB-231. Kind of assay: Growth inhibition of human MDA-MB-231 cells at 10 uM after 48 hrs by sulforhodamine B assay. The conditions noted are these: MDA-MB-231, 48 h, values are per cent of control.
The test system of assay [7] is T47D. Kind of assay: Growth inhibition of human T47D cells at 10 uM after 48 hrs by sulforhodamine B assay. The conditions noted are these: values are per cent of control.
For assay [8], the system named is OVCAR-4. As to the kind of experiment: Growth inhibition of human OVCAR4 cells at 10 uM after 48 hrs by sulforhodamine B assay. The conditions noted are these: OVCAR-4, 48 h, values are per cent of control.
Assay [9] deals with OVCAR-8. As to the kind of experiment: Growth inhibition of human OVCAR8 cells at 10 uM after 48 hrs by sulforhodamine B assay. The conditions noted are these: OVCAR-8, 48 h, read-out: GI.
Assay [10] concerns HL-60(TB). As to the kind of experiment: Growth inhibition of human HL-60(TB) cells at 10 uM after 48 hrs by sulforhodamine B assay. The conditions noted are these: HL-60, 48 h, read-out: GI.
Assay [11] deals with A498. As to the kind of experiment: Growth inhibition of human A498 cells at 10 uM after 48 hrs by sulforhodamine B assay. The conditions noted are these: A498, 48 h, values are per cent of control.
Assay [12] deals with ACHN. As to the kind of experiment: Growth inhibition of human ACHN cells at 10 uM after 48 hrs by sulforhodamine B assay. Particulars: values are per cent of control.
For assay [13], the system named is CAKI-1. Kind of assay: Growth inhibition of human Caki1 cells at 10 uM after 48 hrs by sulforhodamine B assay. Particulars: CAKI-1, 48 h, values are per cent of control.
Assay [14] relates to Rattus norvegicus. Kind of assay: Antiinflammatory activity against carrageenan-induced paw edema in Wister albino rat assessed as inhibition of edema at 50 mg/kg, ip administered 1 hr prior to carrageenan challenge measured after 4 hrs relative to control. The conditions noted are these: route intraperitoneal. In general terms: In the carrageenan paw model, swelling and tenderness develop within hours.

Assay [15] deals with LOX IMVI. As to the kind of experiment: Growth inhibition of human LOXIMVI cells at 10 uM after 48 hrs by sulforhodamine B assay. Particulars: values are per cent of control.
Assay [16] has as its system M14. As to the kind of experiment: Growth inhibition of human M14 cells at 10 uM after 48 hrs by sulforhodamine B assay. The conditions noted are these: M14, 48 h, values are per cent of control.
Assay [17] relates to Malme-3M. Kind of assay: Growth inhibition of human MALME-3M cells at 10 uM after 48 hrs by sulforhodamine B assay. The conditions noted are these: values are per cent of control.
The subject of assay [18] is SK-MEL-28. Kind of assay: Growth inhibition of human SK-MEL-28 cells at 10 uM after 48 hrs by sulforhodamine B assay. Particulars: SK-MEL-28, 48 h, values are per cent of control.
In assay [19] the test system is SK-MEL-5. As to the kind of experiment: Growth inhibition of human SK-MEL-5 cells at 10 uM after 48 hrs by sulforhodamine B assay. Particulars: SK-MEL-5, 48 h, values are per cent of control.
Assay [20] has as its system UACC-62. Kind of assay: Growth inhibition of human UACC62 cells at 10 uM after 48 hrs by sulforhodamine B assay. The conditions noted are these: UACC-62, 48 h, values are per cent of control.
The subject of assay [21] is PC-3. Kind of assay: Growth inhibition of human PC3 cells at 10 uM after 48 hrs by sulforhodamine B assay. The conditions noted are these: PC-3, 48 h, values are per cent of control.
For assay [22], the system named is SF-268. Kind of assay: Growth inhibition of human SF268 cells at 10 uM after 48 hrs by sulforhodamine B assay. The conditions noted are these: SF-268, 48 h, values are per cent of control.
In assay [23] the test system is SNB-75. Kind of assay: Growth inhibition of human SNB75 cells at 10 uM after 48 hrs by sulforhodamine B assay. The conditions noted are these: SNB-75, 48 h, values are per cent of control.

As to `[3H]N1C(=O)[C@@]2(c3ccccc31)N(C)C[C@@H](c1cccs1)[C@@]21Cc2ccccc2C1=O`, the growth, % of control at 10 µM is 97.5% in [1]; 92.3% in assay [2]; 103% in assay [3]; 89.5% in assay [4]; 109% in [5]; 78.3% in assay [6]. Moreover, the growth, % of control at 10 µM came to 96% in [7]; 93% in assay [8]; 89.7% in assay [10]; 102% in assay [11]; 97.9% in assay [12]; 106% in assay [13]. Moreover, the growth, % of control at 10 µM is 80% in [15]; 103% in assay [16]; 93.5% in assay [17]; 117% in assay [18]; 114% in [19]; 82% in assay [20]. For the same molecule, the growth, % of control at 10 µM amounted to 73% in assay [21], 93.6% in [22] and 81% in assay [23]. Also, the inhibition of growth at 10 µM in [9] was 60.2%. In assay [14], the inhibition in vivo at 50 mg/kg was determined as 20%.
Take `[3H]C([3H])([3H])N1C(=O)[C@@]2(c3ccccc31)N(C)C[C@@H](c1ccc(Cl)cc1)[C@@]21Cc2ccccc2C1=O`: the growth, % of control at 10 µM in assay [1] was determined as 72.6%; in assay [2], 77.3%; in assay [3], 88%; in [4], 67.8%; in assay [5], 91.8%; in assay [6], 79.3%. Further, the growth, % of control at 10 µM in assay [7] was determined as 75.8%; in assay [8], 72.5%; in assay [11] it was 82.3%; in assay [12], 82.8%; in assay [13], 71.8%; in [15] it was 72.2%. The growth, % of control at 10 µM in assay [16] came out at 76.6%; in assay [17] it was 102%; in [18], 90.6%; in [19], 87%; in assay [20], 48.4%; in [21], 38.3%. Further, the growth, % of control at 10 µM in assay [22] turned out to be 81.1%; in assay [23], 75.3%. Also, the inhibition of growth at 10 µM in [9] came to 60.9%. Also, the inhibition in vivo at 50 mg/kg in assay [14] was found to be 8.5%.
Turning to `[3H]C([3H])([3H])N1C(=O)[C@@]2(c3ccccc31)N(C)C[C@@H](c1cccs1)[C@@]21Cc2ccccc2C1=O`, the growth, % of control at 10 µM in assay [1] was determined as 107%; in [2] it was 94.9%; in [3], 104%; in assay [4] it was 89.1%; in [5], 103%; in assay [6], 84.3%. Further, the growth, % of control at 10 µM came to 101% in assay [7]; 100% in assay [8]; 70% in [10]; 103% in assay [11]; 98.4% in [12]; 106% in assay [13]. In addition, the growth, % of control at 10 µM in assay [15] was determined as 85.3%; in assay [16] it was 104%; in assay [17], 123%; in assay [18], 105%; in assay [19] it was 112%; in [20], 75.3%. Moreover, the growth, % of control at 10 µM in assay [21] was found to be 70.3%; in assay [22], 101%; in [23] it was 79%. In addition, the inhibition of growth at 10 µM in assay [9] is 64%. Moreover, the inhibition in vivo at 50 mg/kg in assay [14] amounted to 12.9%.
For the molecule `[3H]N1C(=O)[C@@]2(c3ccccc31)N(C)C[C@@H](c1ccc(OC)cc1)[C@@]21Cc2ccccc2C1=O`, the growth, % of control at 10 µM in assay [1] is 92.4%; in assay [2], 91%; in assay [3] it was 76.7%; in assay [4], 87.5%; in assay [5] it was 120%; in assay [6], 74.4%. For the same molecule, the growth, % of control at 10 µM came out at 97.5% in assay [7]; 118% in assay [8]; 72.8% in assay [10]; 105% in assay [11]; 98.1% in assay [12]; 85.7% in assay [13]. In addition, the growth, % of control at 10 µM in assay [15] was 80.5%; in assay [16] it was 97.5%; in [17], 132%; in [18] it was 108%; in assay [19], 101%; in [20], 71.8%. Besides, the growth, % of control at 10 µM in assay [21] came to 66%; in assay [22] it was 113%; in [23] it was 102%. Moreover, in assay [9], the inhibition of growth at 10 µM amounted to 55.3%. The inhibition in vivo at 50 mg/kg in [14] came to 21.8%.
`[3H]N1C(=O)[C@@]2(c3ccccc31)N(C)C[C@@H](c1ccc(Cl)cc1)[C@@]21Cc2ccccc2C1=O`: the growth, % of control at 10 µM turned out to be 52.5% in assay [1]; 73.9% in assay [2]; 95.7% in assay [3]; 76.2% in [4]; 109% in assay [5]; 75.1% in [6]. In addition, the growth, % of control at 10 µM in assay [7] turned out to be 81.8%; in assay [8], 74.5%; in [10], 76.7%; in assay [11] it was 61.9%; in assay [12] it was 80.5%; in assay [13] it was 80%. The growth, % of control at 10 µM in [15] is 65.2%; in assay [16] it was 82.9%; in assay [17] it was 120%; in [18], 112%; in assay [19] it was 112%; in [20] it was 45.8%. In addition, the growth, % of control at 10 µM in assay [21] is 36.5%; in assay [22], 90%; in assay [23], 61.1%. In assay [9], the inhibition of growth at 10 µM turned out to be 69.2%. Further, the inhibition in vivo at 50 mg/kg in [14] was 15.6%.
For the molecule `[3H]C([3H])([3H])N1C(=O)[C@@]2(c3ccccc31)N(C)C[C@@H](c1ccc(OC)cc1)[C@@]21Cc2ccccc2C1=O`, the growth, % of control at 10 µM in assay [1] was found to be 67.3%; in assay [2], 87%; in assay [3], 104%; in assay [4], 83.3%; in [5] it was 100%; in assay [6], 94.3%. In addition, the growth, % of control at 10 µM in [7] is 93.3%; in [8], 78.8%; in [10], 170%; in assay [11], 95.2%; in [12], 82.8%; in assay [13], 91.1%. For the same molecule, the growth, % of control at 10 µM in assay [15] was 78.5%; in [16], 94.1%; in assay [17], 104%; in assay [18], 101%; in [19], 88.1%; in [20] it was 63.1%. The growth, % of control at 10 µM in assay [21] came to 58.4%; in assay [22], 108%; in [23], 79%. Further, in assay [9], the inhibition of growth at 10 µM is 83.8%. Besides, in [14], the inhibition in vivo at 50 mg/kg is 3.8%.
